Experimental data taken from patent US11236129B2, “IL-17A binding peptides and medical uses thereof” (Dompe' Farmaceutici S.P.A., priority 2018, dated 2022).
Residues, ends and D or L forms follow the SMILES beside them.

Tests used:
[1] = target: IL-17RA/IL17RC dimerization induced by IL-17A (Homo sapiens, UniProt Q16552); assay: IL-17RA/IL17RC dimerization assay in response to IL-17A (PathHunter Cytokine Receptor Assay); format: cell-based; details: IL-17A at EC80; read-out: IC50 in IL-17RA/IL7RC dimerization assay
Outline: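 Receptor dimerization was read as chemiluminescence from complemented β-galactosidase after IL-17A at EC80 concentration for 6–16 h at 37 °C. Peptides were added 60 min before agonist, at 37 °C or room temperature, with 1% vehicle. Percent inhibition used the EC80-stimulated and vehicle wells as references.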

[2] = Isoelectric point, log D and log P (SiriusT3); format: physicochemical; details: for IP (isoelectric point): 25±1° C., 0.15 M KCl; for logP: octanol/ISA water, read-out: logP; for logD: pH 7.4, pH 7.4, octanol/ISA water, read-out: Log D (7.4)
[3] = format: physicochemical; details: pH 7.8
Outline: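 Peptides dissolved in phosphate buffer pH 7.8 as 10 mM stocks (more dilute for less soluble ones) and stored at 25 °C. Content measured by reversed-phase UHPLC (C18, 0.5% formic acid water/acetonitrile gradient, DAD 220-400 nm, ESI-MS ion trap) after 1:100 dilution to 100 μM, against 100 μM standards, at T0, 3 days and 1 week.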

Chain of IL-17RA/IL17RC dimerization induced by IL-17A (Q16552 24-155): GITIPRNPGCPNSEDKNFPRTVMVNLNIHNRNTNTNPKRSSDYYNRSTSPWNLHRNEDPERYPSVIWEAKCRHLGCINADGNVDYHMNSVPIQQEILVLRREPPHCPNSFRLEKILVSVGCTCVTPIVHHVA

In the case of `CC[C@H](C)[C@H](NC(=O)[C@H](Cc1c[nH]c2ccccc12)NC(=O)[C@H](CCC(=O)O)NC(=O)[C@H](Cc1ccc(O)cc1)NC(=O)[C@H](CC(C)C)NC(=O)[C@H](CC(=O)O)NC(=O)[C@H](C)NC(=O)[C@@H]1CCCN1C(=O)[C@@H](NC(=O)[C@@H](NC(=O)[C@@H](NC(=O)[C@H](CCSC)NC(=O)[C@@H](NC(=O)[C@H](Cc1c[nH]c2ccccc12)NC(=O)[C@@H](NC(=O)[C@H](CCC(=O)O)NC(=O)[C@H](Cc1c[nH]c2ccccc12)NC(=O)[C@H](Cc1c[nH]c2ccccc12)NC(=O)[C@@H](NC(=O)[C@H](CCC(=O)O)NC(=O)[C@H](CCCCN)NC(=O)CNC(=O)CNC(C)=O)[C@@H](C)O)[C@@H](C)O)C(C)C)C(C)C)[C@@H](C)O)[C@@H](C)CC)C(=O)N[C@@H](CCC(=O)O)C(=O)N[C@@H](CCC(=O)O)C(N)=O` [SEQ ID NO: 33] (Ac-GGKETWWETWVMVTIPADLYEWIEE-NH2), the IC50 [1] is reported as < 1 µM, the “IP (isoelectric point)” value [2] is reported as 4.46 and the logP [2] is reported as 1.99. The logD [2] was -1.06 and the solubility [3] was ≥ 100 µM.

In the case of `CC[C@H](C)[C@H](NC(=O)[C@H](Cc1c[nH]c2ccccc12)NC(=O)[C@H](CCC(=O)O)NC(=O)[C@H](Cc1ccc(O)cc1)NC(=O)[C@H](CC(C)C)NC(=O)[C@H](CC(=O)O)NC(=O)[C@H](C)NC(=O)[C@@H]1CCCN1C(=O)[C@@H](NC(=O)[C@@H](NC(=O)[C@@H](NC(=O)[C@H](CCSC)NC(=O)[C@@H](NC(=O)CNC(=O)[C@H](Cc1c[nH]c2ccccc12)NC(=O)CNC(=O)[C@@H]1CCCN1C(=O)[C@@H](NC(C)=O)C(C)C)C(C)C)C(C)C)[C@@H](C)O)[C@@H](C)CC)C(=O)N[C@@H](CCC(=O)O)C(=O)N[C@@H](CCC(=O)O)C(N)=O` [SEQ ID NO: 34] (Ac-VPGWGVMVTIPADLYEWIEE-NH2), the IC50 [1] is reported as < 1 µM, the “IP (isoelectric point)” value [2] is reported as 5.14 and the logP [2] is reported as -5.43. The logD [2] was -3.38 and the solubility [3] was < 50 µM.

In the case of `CC[C@H](C)[C@H](NC(=O)[C@H](Cc1c[nH]c2ccccc12)NC(=O)[C@H](CCC(=O)O)NC(=O)[C@H](Cc1ccc(O)cc1)NC(=O)[C@H](CC(C)C)NC(=O)[C@H](CC(=O)O)NC(=O)[C@H](C)NC(=O)[C@@H]1CCCN1C(=O)[C@@H](NC(=O)[C@@H](NC(=O)[C@@H](NC(=O)[C@H](CCSC)NC(=O)[C@@H](NC(=O)CNC(=O)[C@H](C)NC(=O)CNC(=O)[C@@H]1CCCN1C(=O)[C@@H](NC(C)=O)C(C)C)C(C)C)C(C)C)[C@@H](C)O)[C@@H](C)CC)C(=O)N[C@@H](CCC(=O)O)C(=O)N[C@@H](CCC(=O)O)C(N)=O` [SEQ ID NO: 35] (Ac-VPGAGVMVTIPADLYEWIEE-NH2), the IC50 [1] is reported as < 1 µM, the “IP (isoelectric point)” value [2] is reported as 5.14 and the logP [2] is reported as -5.43. The logD [2] was -3.52 and the solubility [3] was > 10000 µM.

With `CC[C@H](C)[C@H](NC(=O)[C@H](Cc1c[nH]c2ccccc12)NC(=O)[C@H](CCC(=O)O)NC(=O)[C@H](Cc1ccc(O)cc1)NC(=O)[C@H](CC(C)C)NC(=O)[C@H](CC(=O)O)NC(=O)[C@H](C)NC(=O)[C@@H]1CCCN1C(=O)[C@@H](NC(=O)[C@@H](NC(=O)[C@@H](NC(=O)[C@H](CCSC)NC(=O)[C@@H](NC(=O)CNC(=O)[C@H](CCCCN)NC(=O)CNC(=O)[C@@H]1CCCN1C(=O)[C@@H](NC(C)=O)C(C)C)C(C)C)C(C)C)[C@@H](C)O)[C@@H](C)CC)C(=O)N[C@@H](CCC(=O)O)C(=O)N[C@@H](CCC(=O)O)C(N)=O` [SEQ ID NO: 36] (Ac-VPGKGVMVTIPADLYEWIEE-NH2) the IC50 [1] was < 1 µM, the “IP (isoelectric point)” value [2] was 8.13 and the logP [2] was -1.09. The logD [2] was -1.24 and the solubility [3] was ≥ 100 µM.
